Assay results taken from US20050096381A1, “Derivatives of isoflavones” (YEDA & MEDICAL RESEARCH, priority 2002, published 2005).
pEC50, pIC50: −log10 of the molar value. Entries after “also recorded” stand apart in the source; their conditions may differ. Like-named read-outs stand apart in the source and are kept apart here.

How the values were obtained:
[1] = test system: creatine kinase (CK) specific activity, an estrogen responsive enzyme; experiment: Stimulation of the specific activity of creatine kinase (CK) in rat tissues in vivo; details: for CK specific activity (experimental/control), aorta: Ao; for CK specific activity (experimental/control), aorta / CK specific activity (experimental/control), diaphysis / CK specific activity (experimental/control), epiphysis / CK specific activity (experimental/control), left ventricle of the heart / CK specific activity (experimental/control), pituitary / CK specific activity (experimental/control), uterus: immature female rats, i.p., 24 h, mean ± SD, n = 5, control = 1.0; for CK specific activity (experimental/control), diaphysis: Dia; for CK specific activity (experimental/control), epiphysis: Epi; for CK specific activity (experimental/control), left ventricle of the heart: LV; for CK specific activity (experimental/control), pituitary: Pi; for CK specific activity (experimental/control), uterus: Ut; for effect on CK specific activity in rat tissues (in words): uterus, pituitary, epiphysis, diaphysis, aorta, left ventricle
Experimental: The ability of the isoflavone derivatives to bind estrogen receptor and/or to modulate estrogen receptor response may be examined by any assay known in the art. A convenient assay described herein as a non-limiting example utilizes the specific activity of creatine kinase (CK), an estrogen responsive enzyme, as a parameter for the estrogen-like activity of the isoflavone derivatives of the present invention.
The rats were killed by decapitation 24 h after i.p. injection. The various organs were removed and stored at −20° C. until processed for CK activity as previously described (Somjen D. et al. 1998 Hypertension 32:39-45).

[2] = test system: E304 endothelial cells (expressing mainly ERα); experiment: DNA synthesis by [3H]-thymidine incorporation in E304 cells; assay type: cell-based, human
Experimental: E304 cells, expressing mainly ERα, an endothelial cell line derived from a human umbilical vein, were purchased from American Type Culture Collection (ATCC), Rockville, Md., and grown in medium 199 containing 10% FCS, glutamine and antibiotics.
(§1) Assessment of DNA synthesis was performed by [^3H]-thymidine incorporation in these cells. Cells were grown until subconfluence and then treated with various hormones or agents as indicated. Forty-eight hours later, [^3H] thymidine was added for two hours. Cells were then treated with 10% ice-cold trichloroacetic (TCA) for 5 min and washed twice with 5% TCA and then with cold ethanol. The cellular layer was dissolved in 0.3 ml of 0.3M NaOH, samples were taken and [^3H] thymidine incorporation into DNA was determined. The concentration of hormone to produce half-maximal induction (EC50) or inhibition (IC50) was calculated from the dose response curves.
(§2) In the second phase the cytotoxicity of isoflavone-daunomycin conjugates was tested after 48 h of incubation in normal cells [VSMC, E304, non transformed enterocytes (TEC)] and malignant cells [human adrenocortical carcinoma (NCI-H295R), human colon cancer cells (colo320) and c-K-ras transformed rat enterocytes (R1)] using uptake of [^3H]-thymidine as a proliferation marker.

[3] = test system: human vascular smooth muscle cells (VSMC), expressing mainly ERβ; experiment: cells; assay type: cell-based
Experimental: Human umbilical artery smooth muscle cells, expressing mainly ERβ, were prepared as previously described with minor modifications (Somjen D. et al. 1998 Hypertension 32:39-45). In brief, umbilical cords were collected shortly after delivery. The umbilical arteries were isolated by dissection, cleaned of blood and adventitia and then cut into tiny slices (1-3 mm). The segments were kept in culture in medium 199 containing 20% FCS, glutamine and antibiotics. […] Cells were fed twice a week and, upon confluence, trypsinized and transferred to 24-well dishes. Cells were used only at passages 1-3 when expression of smooth muscle actin was clearly demonstrable.
as §1, §2

[4] = test system: c-K-ras transformed rat enterocytes (R1); experiment: cells; assay type: cell-based; details: read-out: concentration required for 50% inhibition of DNA synthesis (IC50), R1
Experimental: (§3) Cell lines were obtained from Prof. N. Arber, Ichilov Hospital, Tel-Aviv, Israel and grown as described previously (Arber N et al. 1996 Oncogene 12:1903-1908).
as §1, §2

[5] = test system: nontransformed rat enterocytes (IEC); experiment: cells; assay type: cell-based; details: read-out: concentration required for 50% inhibition of DNA synthesis (IC50), IEC
Experimental: as §3, §1, §2

[6] = test system: human colon cancer cells (colo320); experiment: DNA synthesis by [3H]-thymidine incorporation in colo320 cells; assay type: cell-based
Experimental: These cells were purchased from ATTC (Rockville, Md.) and grown in RPMI medium containing 20 mM HEPES and 10% fetal calf serum.
as §1, §2

[7] = test system: human adrenocortical carcinoma cells (NCI-H295R); experiment: cells; assay type: cell-based; details: for pIC50: read-out: concentration required for 50% inhibition of DNA synthesis (IC50), NCI-H295R
Experimental: These cells were purchased from ATTC (Rockville, Md.) and grown in Dulbecco's modified Eagle's medium containing antibiotics.
as §1, §2

[8] = target: Recombinant ERβ protein (Homo sapiens, UniProt Q92731); experiment: Estrogen receptor-binding assay, [3H]-17β-estradiol displacement, ERβ; details: for binding activity to ERβ: result in words
Experimental: (§4) Biotinylated anti-ER antibody (α or β, prepared as described in Strasburger C J & Kohen F 1990 Methods Enzymol. 184:481-496), 100 ng/well in 100 μl of binding buffer, was added to each well, and the reaction mixtures were incubated with shaking for 2 h and 30 min at room temperature. The reaction mixtures were then decanted, and each well was washed once with binding buffer. Dilute sodium hydroxide (0.1 N, 300 μl) was added to each well. After shaking for 20 min, an aliquot (200 μl) was removed from each well and added to a vial containing scintillation fluid. The vials were then counted for radioactivity in a beta scintillation counter.

[9] = target: T1, Recombinant ERα protein (Homo sapiens, UniProt P03372); experiment: Estrogen receptor-binding assay, [3H]-17β-estradiol displacement, ERα; details: result in words
T1 sequence (P03372 1-595): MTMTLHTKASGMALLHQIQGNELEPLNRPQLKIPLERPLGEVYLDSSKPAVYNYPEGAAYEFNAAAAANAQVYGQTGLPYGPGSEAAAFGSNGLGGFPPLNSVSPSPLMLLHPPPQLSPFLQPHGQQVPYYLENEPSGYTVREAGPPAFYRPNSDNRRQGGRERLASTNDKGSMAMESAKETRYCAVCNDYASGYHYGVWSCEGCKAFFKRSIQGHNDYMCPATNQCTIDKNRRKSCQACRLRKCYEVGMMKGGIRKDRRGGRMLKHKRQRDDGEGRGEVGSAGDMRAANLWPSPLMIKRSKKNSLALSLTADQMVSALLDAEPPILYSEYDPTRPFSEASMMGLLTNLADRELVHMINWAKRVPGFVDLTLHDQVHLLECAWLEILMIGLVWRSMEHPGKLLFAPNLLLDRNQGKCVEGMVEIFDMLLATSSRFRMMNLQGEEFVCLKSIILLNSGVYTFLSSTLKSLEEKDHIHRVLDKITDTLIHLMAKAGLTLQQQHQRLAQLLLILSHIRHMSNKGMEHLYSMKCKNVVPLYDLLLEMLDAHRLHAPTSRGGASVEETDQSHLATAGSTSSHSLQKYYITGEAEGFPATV
Experimental: as §4

[10] = 48 h incubation, read-out: concentration required for 50% inhibition of DNA synthesis (IC50), E304
[11] = 48 h incubation, [3H]-thymidine, read-out: concentration required for 50% inhibition of DNA synthesis (IC50), VSMC
[12] = 48 h incubation, [3H]-thymidine

Recombinant ERβ protein, sequence (Q92731 whole entry, species assumed): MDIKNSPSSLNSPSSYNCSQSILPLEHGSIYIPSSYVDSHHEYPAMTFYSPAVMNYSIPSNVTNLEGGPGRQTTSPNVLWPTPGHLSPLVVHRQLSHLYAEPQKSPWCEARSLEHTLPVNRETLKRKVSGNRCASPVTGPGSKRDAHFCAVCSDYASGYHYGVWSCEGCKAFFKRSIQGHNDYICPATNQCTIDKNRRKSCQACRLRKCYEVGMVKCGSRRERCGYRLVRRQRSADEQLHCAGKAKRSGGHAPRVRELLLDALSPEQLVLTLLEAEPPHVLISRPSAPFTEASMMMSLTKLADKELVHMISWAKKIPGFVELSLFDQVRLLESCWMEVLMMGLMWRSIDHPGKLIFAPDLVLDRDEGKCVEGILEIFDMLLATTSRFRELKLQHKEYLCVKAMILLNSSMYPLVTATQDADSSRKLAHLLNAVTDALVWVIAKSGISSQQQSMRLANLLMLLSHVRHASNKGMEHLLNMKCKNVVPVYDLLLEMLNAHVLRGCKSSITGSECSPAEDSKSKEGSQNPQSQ

Compound: C[C@]12CC[C@@H]3c4ccc(O)cc4CC[C@H]3[C@@H]1CC[C@@H]2O [Estradiol, 17β-estradiol]
- CK specific activity (experimental/control), aorta [1]: 2.43 ± 0.06
- CK specific activity (experimental/control), diaphysis [1]: 2.75 ± 0.23
- CK specific activity (experimental/control), epiphysis [1]: 1.85 ± 0.16
- CK specific activity (experimental/control), left ventricle of the heart [1]: 1.53 ± 0.13
- CK specific activity (experimental/control), pituitary [1]: 1.45 ± 0.05
- CK specific activity (experimental/control), uterus [1]: 1.49 ± 0.13
- effect on CK specific activity in rat tissues (in words) [1]: stimulated the CK specific activity in all the rat tissues

Compound: COc1cccc2c1C(=O)c1c(O)c3c(c(O)c1C2=O)C[C@@](O)(C(C)=O)C[C@@H]3O[C@H]1C[C@H](N)[C@H](O)[C@H](C)O1 [Daunomycin, daunomycin, reference compound]
- pIC50 [2, 10]: 6.52
- pIC50 ([2]; read-out: concentration required for 50% inhibition of DNA synthesis (IC50), E304, 48 h incubation): 6.10
- pIC50 ([3]; Homo sapiens, VSMC, read-out: concentration required for 50% inhibition of DNA synthesis (IC50), VSMC, 48 h incubation, [3H]-thymidine): 6.15
- pIC50 ([3]; read-out: concentration required for 50% inhibition of DNA synthesis (IC50), VSMC, 48 h incubation, [3H]-thymidine): 6.19
- pIC50 ([4]; Rattus norvegicus): 6.07
- pIC50 ([5]; Rattus norvegicus): 6.26
- pIC50 ([6]; Homo sapiens, COLO 320, read-out: concentration required for 50% inhibition of DNA synthesis (IC50), Colo320): 6.52

Compound: 7-(O)-carboxymethyl daidzein-daunomycin conjugate [Cdaid-daunomycin]
- pIC50 [3, 11]: 7.66
- pIC50 ([7]; 48 h incubation, [3H]-thymidine, listed as 7-(O)-carboxymethyl daidzein-daunomycin conjugate): 8.15
- pIC50 [7, 12]: 8.22

Compound: O=C(O)Cc1c(O)cc2occ(-c3ccc(O)cc3)c(=O)c2c1O [6-carboxymethyl genistein]
- pIC50 ([8]; recombinant ERβ, [3H]-17β-estradiol 3 nM, read-out: inhibition of binding of [3H]-estradiol to ERβ, relative binding affinity values (IC50)): 6.70
- effect on CK specific activity in rat tissues (in words) [1]: caused an increase in CK activity in rat tissues
- pEC50 ([3]; Homo sapiens, VSMC, [3H]-thymidine incorporation, read-out: induced proliferation, EC50 in VSMC): 8.52
- pEC50 ([7]; Homo sapiens, NCI-H295R, [3H]-thymidine incorporation, read-out: induced proliferation, EC50 in NCI-H295R): 8.70

Compound: COc1ccc(-c2coc3cc(O)c(CC(=O)O)c(O)c3c2=O)cc1 [6-carboxymethyl biochanin A]
- binding activity to ERα [9]: did not show any significant binding activity
- binding activity to ERβ [8]: did not show any significant binding activity
- CK specific activity (experimental/control), aorta [1]: 1.63 ± 0.11
- CK specific activity (experimental/control), diaphysis [1]: 1.51 ± 0.05
- CK specific activity (experimental/control), epiphysis [1]: 1.61 ± 0.17
- CK specific activity (experimental/control), left ventricle of the heart [1]: 1.91 ± 0.16
- CK specific activity (experimental/control), pituitary [1]: 1.54 ± 0.05
- CK specific activity (experimental/control), uterus [1]: 0.89 ± 0.12
- stimulatory response of E2 to CK specific activity on combination with E2 (in words) ([1]; rats treated with E2 plus compound): inhibited in all the tissues
- effect on CK specific activity in rat tissues (in words) [1]: increased the CK specific activity in all the rat tissues with the exception of the uterus; also recorded: caused an increase in CK activity in rat tissues

Compound: O=C(O)COc1ccc2c(=O)c(-c3ccc(O)cc3)coc2c1 [7-(O)-carboxymethyl daidzein]
- binding activity to ERα [9]: did not show any significant binding activity
- binding activity to ERβ [8]: did not show any significant binding activity

Compound: 6-carboxymethyl biochanin A daunomycin conjugate [Cbio-daunomycin]
- pIC50 [2, 10]: 8.30
- pIC50 [7, 12]: 7.22
- pIC50 ([6]; 48 h incubation, [3H]-thymidine, read-out: concentration required for 50% inhibition of DNA synthesis (IC50), Colo320): 7.40

Compound: O=c1c(-c2ccc(O)cc2)coc2cc(O)ccc12 [Daidzein, reference compound]
- binding activity to ERα [9]: did not show any significant binding activity
- binding activity to ERβ [8]: did not show any significant binding activity

Compound: COc1ccc(-c2coc3cc(O)cc(O)c3c2=O)cc1 [Biochanin A, biochanin A]
- binding activity to ERα [9]: did not show any significant binding activity
- binding activity to ERβ [8]: did not show any significant binding activity
- CK specific activity (experimental/control), aorta [1]: 2 ± 0.18
- CK specific activity (experimental/control), diaphysis [1]: 1.9 ± 0.23
- CK specific activity (experimental/control), epiphysis [1]: 2.38 ± 0.18
- CK specific activity (experimental/control), left ventricle of the heart [1]: 1.42 ± 0.04
- CK specific activity (experimental/control), pituitary [1]: 1.58 ± 0.05
- CK specific activity (experimental/control), uterus [1]: 1.42 ± 0.13
- effect on CK specific activity in rat tissues (in words) [1]: stimulated the CK specific activity in all the rat tissues

Compound: 6-carboxymethyl genistein daunomycin conjugate [Cgen-daunomycin]
- pIC50 [2, 10]: 7.22
- pIC50 ([3]; 48 h incubation, [3H]-thymidine, listed as 6-carboxymethyl genistein daunomycin conjugate, read-out: concentration required for 50% inhibition of DNA synthesis (IC50), VSMC): 7.70
- pIC50 [3, 11]: 7.92
- pIC50 [7]: 7.80
- pIC50 [4]: 7.15
- pIC50 [5]: 5.70
